Source: patent EP0998912B1, “Use of peracids for hand's disinfection or decontamination” (Bode Chemie GmbH & Co., priority 1998, dated 2000)

Legend:
residente Hautflora = assay: Surgical hand disinfection test, DGHM guidelines (01.01.1981, Versuch II-2); type: in vivo; settings: 5 gew.-%ige solution in demineralised water, hands kept moist 3 Minuten; standard n-Propanol 60 Vol.-% 5 Minuten
From the text: (§1) Mit dieser Lösung wurde der Test zur chirurgischen Händedesinfektion entsprechend den Richtlinien der DGHM (Stand: 01.01.1981, Versuch II-2) durchgeführt. Bei diesem Versuch werden die Hände durch Einreiben 3 Minuten feucht gehalten und gegen ein Standardalkohol (n-Propanol 60 Vol.-%) nach 5 Minuten getestet. Der Test gilt als bestanden, wenn die residente Hautflora durch das Testpräparat gleich oder stärker reduziert wird als durch den Standard.

[1] = tested on: transiente Flora (E. coli); assay: Hygienic hand disinfection test, DGHM guidelines (01.01.1981, Versuch II-1); type: in vivo; settings: 1 bis 10 gewichts-%-ige purely aqueous solutions, 30 bis 60 Sekunden; compared with requirements for 60 Volumen-% Ethanol or Isopropanol
Description: Mit der Zubereitung aus Beispiel 2 wurde der Test zur hygienischen Händedesinfektion gemäß den Richtlinien der DGHM (Stand: 01.01.1981, Versuch II-1) durchgeführt. Bei diesem Versuch muß die transiente Flora (E. coli) in 30 Sekunden gleich oder stärker reduziert werden als mit einem Standardalkohol (Isopropanol 60 Vol.-%) in 1 Minute.

Bakterien = assay: Comparative trials on germ reduction by aqueous MMPP solutions; settings: 0,1 bis 10 gewichts-%-ige aqueous solutions, about 30 Sekunden Einwirkzeit
[2] = Skin tolerance observed during the hand disinfection and decontamination tests; type: in vivo
From the text: as §1
Mit einer solchen Lösung, die 4 Gew.-% des Wirkstoffes MMPP enthält, wurde ein Test zur Händedekontamination nach DGHM (Stand: 08.07.1986, Versuch 11) durchgeführt. Bei diesem Verfahren wird die Fähigkeit getestet, die transiente Hautflora zu reduzieren. Der Test gilt als bestanden, wenn das Präparat innerhalb von 30 Sekunden eine E. coli-Kontamination um 3,5 logarithmische Stufen entsprechend 99,9684 % reduziert.
Mit diesen Pasten wurden entsprechend Beispiel 2 die Versuche zur Händedekontamination durchgeführt. Die Hände werden 30 Sekunden mit 1,5 ml der Pasten eingerieben und dann mit Wasser entsprechend der Vorschrift aufgeschäumt.
Mit der Zubereitung aus Beispiel 2 wurde der Test zur hygienischen Händedesinfektion gemäß den Richtlinien der DGHM (Stand: 01.01.1981, Versuch II-1) durchgeführt. […]

SMILES: O=C(O)c1ccccc1C(=O)OO [MMPP, Magnesium-Monoperoxidophthalat]
- Reduktion der residenten Hautflora gleich oder stärker als durch den Standard (residente Hautflora): erfüllt diese Anforderungen
- Keimreduktion bei der hygienischen Händedesinfektion [1]: vergleichbare Keimreduktion
- Keimreduktion (Bakterien): > 4 log-Stufen
- Keimreduktion (Bakterien; equivalent of the log steps): > 99,99%
- Hautverträglichkeit ([2]; 0,1 bis 10 gewichts-%-ige aqueous solutions, Vergleichsversuche): hervorragend hautverträglich
- Hautunverträglichkeiten ([2]; Beispiel 1, 5 gew.-%ige MMPP-Lösung, surgical hand disinfection): keine Hautunverträglichkeiten
